Data reported in the supplement of paper PMC10307832.

How the values were obtained:
Experiment in all cases: relative viability (nuclei count vs DMSO), 5 days (fraction); higher = more cells survive
[1] = compound: COc1cc2c(Oc3ccc4[nH]c(C)cc4c3F)ncnc2cc1OCCCN1CCCC1 [Cediranib] + CS(=O)(=O)CCNCc1ccc(-c2ccc3ncnc(Nc4ccc(OCc5cccc(F)c5)c(Cl)c4)c3c2)o1 [Lapatinib] (partner 2 µM)
Procedure, shortened: (§1)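 A single step with final 0.05% Triton X-100, 1% formaldehyde and 1 ug/ml Hoechst fixed the cells and stained nuclei 5 days after treatment. Lung cancer cell lines in 1536-well plates had been treated by pin tool the day after seeding with one drug alone or a fixed anchor-drug dose plus five library-drug doses (not always all listed) in √10 steps, and nuclei were counted on 4× images. Relative viability is the ratio of nuclei in treated wells to nuclei in vehicle wells, taken as the median of duplicate plates.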

[2] = compound: COc1cc2c(Oc3ccc4[nH]c(C)cc4c3F)ncnc2cc1OCCCN1CCCC1 [Cediranib] + N=C(N)NC(=N)NCCc1ccccc1 [Phenformin] (partner 250 µM)
Procedure, shortened: as §1

[3] = compound: Nc1ncn([C@H]2C[C@H](O)[C@@H](CO)O2)c(=O)n1 [Decitabine] + CC(=O)c1c(C)c2cnc(Nc3ccc(N4CCNCC4)cn3)nc2n(C2CCCC2)c1=O [Palbociclib] (partner 0.5 µM)
Procedure, shortened: as §1

[4] = compound: Nc1ncn([C@H]2C[C@H](O)[C@@H](CO)O2)c(=O)n1 [Decitabine] + NC(=O)Nc1cc(-c2cccc(F)c2)sc1C(=O)N[C@H]1CCCNC1 [AZD7762] (partner 0.2 µM)
Procedure, shortened: as §1

Cell Line | relative viability ([1]; first compound 0.04 µM) | relative viability ([1]; first compound 0.1265 µM) | relative viability ([1]; first compound 0.4 µM) | relative viability ([1]; first compound 1.265 µM) | relative viability ([1]; first compound 4 µM) | relative viability ([2]; first compound 0.04 µM) | relative viability ([2]; first compound 0.1265 µM) | relative viability ([2]; first compound 0.4 µM) | relative viability ([2]; first compound 1.265 µM) | relative viability ([2]; first compound 4 µM) | relative viability ([3]; first compound 0.04 µM) | relative viability ([3]; first compound 0.1265 µM) | relative viability ([3]; first compound 0.4 µM) | relative viability ([3]; first compound 1.265 µM) | relative viability ([3]; first compound 4 µM) | relative viability ([4]; first compound 0.04 µM) | relative viability ([4]; first compound 0.1265 µM) | relative viability ([4]; first compound 0.4 µM) | relative viability ([4]; first compound 1.265 µM) | relative viability ([4]; first compound 4 µM)
SW 1573 | 1.17 | 1.11 | 0.959 | 1.07 | 1.3 | 0.35 | 0.336 | 0.329 | 0.394 | 0.416 | 0.429 | 0.407 | 0.367 | 0.228 | 0.251 | – | – | – | – | –
NCI-H1993 | 0.8 | 0.675 | 0.815 | 0.755 | 0.887 | 0.423 | 0.5 | 0.484 | 0.523 | 0.393 | 0.646 | 0.589 | 0.645 | 0.503 | 0.583 | 0.654 | 0.796 | 0.644 | 0.641 | 0.703
NCI-H661 | 0.552 | 0.738 | 0.403 | 0.494 | 0.544 | 0.294 | 0.296 | 0.281 | 0.267 | 0.31 | 0.489 | 0.468 | 0.417 | 0.348 | 0.361 | – | – | – | – | –
NCI-H520 | 0.977 | – | 0.605 | 0.759 | 0.785 | 0.704 | 0.543 | 0.503 | 0.363 | 0.464 | 0.22 | 0.23 | 0.204 | 0.17 | 0.184 | – | – | – | – | –
ChaGo-K-1 | – | – | – | – | – | 0.486 | 0.361 | 0.452 | 0.564 | 0.576 | 0.764 | 0.545 | 0.442 | 0.362 | 0.637 | 0.725 | 0.679 | 0.469 | 0.442 | 0.408
NCI-H2085 | 0.846 | 0.791 | 0.839 | 0.725 | 0.774 | 0.655 | 0.844 | 0.632 | 0.753 | 0.814 | 0.465 | 0.403 | 0.408 | 0.335 | 0.395 | 0.757 | 0.852 | 0.655 | 0.527 | 0.615
SK-MES-1 | 0.471 | 0.502 | 0.441 | 0.514 | 0.473 | 0.663 | 0.748 | 0.618 | 0.626 | 0.639 | 0.315 | 0.304 | 0.303 | 0.277 | 0.319 | – | – | – | – | –
COR-L 105 | – | 0.304 | 0.361 | 0.339 | 0.337 | 0.4 | 0.58 | 0.497 | 0.519 | 0.523 | 0.45 | 0.474 | 0.397 | 0.408 | 0.387 | – | – | – | – | –
NCI-H1703 | 1.36 | 1.07 | 0.361 | 0.354 | 0.341 | – | – | – | – | – | – | – | – | – | – | 0.111 | 0.0883 | 0.132 | 0.152 | 0.102
NCI-H1650 | 0.955 | 0.183 | 0.802 | 0.776 | 0.665 | 0.436 | 0.581 | 0.351 | 0.362 | 0.341 | 0.262 | 0.353 | 0.248 | 0.255 | 0.293 | – | – | – | – | –
NCI-H2009 | 0.882 | 0.239 | 0.94 | 0.899 | 1.15 | 0.492 | 0.434 | 0.481 | 0.481 | 0.493 | 0.43 | 0.231 | 0.116 | 0.193 | 0.275 | – | – | – | – | –
COR-L23 | 1.1 | 0.899 | 0.895 | 0.892 | 1.32 | 0.452 | 0.39 | 0.406 | 0.405 | 0.482 | 0.212 | 0.237 | 0.196 | 0.145 | 0.153 | – | – | – | – | –
NCI-H522 | – | – | – | – | – | 0.623 | 0.608 | 0.575 | 0.64 | 0.687 | 0.97 | 0.803 | 0.817 | 0.634 | 0.533 | 0.819 | 0.692 | 0.571 | 0.567 | 0.591
LCLC-103H | – | – | – | – | – | 0.319 | 0.39 | 0.298 | 0.344 | 0.352 | 0.429 | 0.49 | 0.444 | 0.442 | 0.501 | 0.746 | 0.728 | 0.649 | 0.639 | 0.551
NCI-H1563 | 0.89 | 0.66 | 0.935 | 0.822 | 0.78 | 0.63 | 0.851 | 0.676 | 0.651 | 0.665 | – | – | – | – | – | – | – | – | – | –
SW 900 | – | – | – | – | – | 0.658 | 0.604 | 0.698 | 0.496 | 0.645 | 0.457 | 0.506 | 0.314 | 0.305 | 0.348 | 0.502 | 0.646 | 0.39 | 0.237 | 0.298
SK-LU-1 | 1 | 0.743 | 0.851 | 0.836 | 1.07 | 0.541 | 0.708 | 0.497 | 0.456 | 0.439 | 0.39 | 0.342 | 0.325 | 0.345 | 0.303 | – | – | – | – | –
NCI-H2228 | 1.06 | 1.07 | 0.928 | 1.18 | 1.17 | 0.278 | 0.272 | 0.278 | 0.285 | 0.319 | 0.385 | 0.463 | 0.215 | 0.204 | 0.169 | – | – | – | – | –
NCI-H1623 | – | – | – | – | – | 0.587 | – | 0.553 | 0.595 | 0.567 | – | – | – | – | – | – | – | – | – | –
IA-LM | 0.933 | 0.938 | 0.673 | 0.732 | 0.794 | – | – | – | – | – | – | – | – | – | – | – | – | – | – | –
EBC-1 | 0.252 | 0.206 | 0.213 | 0.226 | 0.202 | – | – | – | – | – | – | – | – | – | – | – | – | – | – | –
NCI-H441 | – | – | – | – | – | 0.658 | – | 0.802 | 0.763 | 0.991 | 0.214 | 0.198 | 0.183 | 0.138 | 0.205 | 0.422 | 0.428 | 0.287 | 0.259 | 0.254
NCI-H1299 | 1.02 | 0.958 | 0.995 | 0.933 | 0.983 | – | – | – | – | – | – | – | – | – | – | – | – | – | – | –
NCI-H596 | 1.19 | 1.29 | 1.06 | 0.868 | 1.06 | 0.723 | 0.703 | 0.722 | – | 0.718 | – | – | – | – | – | 1.07 | 1.14 | 0.699 | 0.913 | 0.881
